{
  "source": "patent US20250163057A1",
  "about": "“DCN-1 MODULATING COMPOUNDS AND METHODS OF USE THEREOF” (Cellarity, Inc., priority 2023, published 2025)",
  "key": {"[1]": {"tested_on": "fetal hemoglobin gene expression (HBG1) in human erythroid progenitor cells", "test": "Humanized mouse model: fetal hemoglobin mRNA (HBG1, HBB) in bone marrow by Nanostring", "type": "in vivo, NBSGW mice reconstituted with human CD34+ cells", "settings": "humanized mouse model, human erythroid progenitor cells, dose not given at this place", "excerpt": "(§1) Results: To evaluate induction of target cell activity in the bone marrow, a humanized mouse model was developed. This model entails the reconstitution of human hematopoietic progenitor cells within the bone marrow of immunodeficient nonirradiated NOD.Cg-KitW-41J Tyr^+ Prkdc^scid Il2rg^tmlwjl/ThomJ (NBSGW) strain recipient mice. These mice are competent to engraft and differentiate human erythroid progenitor cells that express human adult hemoglobin mRNA and protein subunits within bone marrow.\n(§2) Based on these exposure results, humanized mice were treated with either the clinical standard of care compound, hydroxyurea (50 mg/kg; bid), or I-73, at 25 and 100 mg/kg (bid), by oral gavage over a three-week period. At the end of the treatment period, bone marrow was harvested for flow cytometry, as well as for assessment of HbF protein and fetal hemoglobin (HBG1) mRNA levels. Levels of both HbF protein and HBG1 mRNA were normalized to the percentage of human erythroid progenitor cells in the bone marrow of each mouse as determined by immunofluorescence staining for human Glycophorin A cell membrane expression. […] In addition, relative levels of fetal hemoglobin to those of potentially sickling-prone adult hemoglobin (HBB) was assessed.\n(§3) Female, 6-week-old NOD.Cg-Kit^W-41J Tyr^+ Prkdc^scid Il2rg^tm1Wjl/ThomJ (NBSGW) mice (Jackson Laboratory strain #[…]) were used for these studies. The mice were acclimatized to laboratory conditions for 5 days prior to inoculation.\n(§4) GCSF-mobilized human CD34+ cells were removed from liquid nitrogen storage, thawed in a 37° C. water bath and transferred quickly into a 50 mL conical tube. Cryovial was rinsed once with thaw buffer, 0.1% BSA in phosphate buffered saline (PBS), and buffer was transferred and combined with the original contents in the 50 mL conical tube. Next, doubling volumes of thaw buffer was added to the conical and gently swirled for ˜30 seconds to one minute until the volume in the conical was 32 mL. Cells and buffer were centrifuged at 300G for 8 minutes, and the supernatants were aspirated. Cells were counted by resuspending in 1 mL of thawing buffer per million of cells to a target concentration range of 0.5 to 2M/ml and counting with AOPI (1:1) on a luna cell counter to confirm the concentration of cells/mL. The cell concentration was adjusted to 3×10^6 cells/ml. For each mouse, 300 thousand cells in 0.1 ml were injected into the tail vein with a 25-gauge needle.\n(§5) On day 56 after human cell adoptive transfer, whole blood was collected from each mouse by submandibular bleed and a 100 μL sample of EDTA whole blood was transferred to a 2 ml tube containing 1.8 mL ACK Lysing Buffer at room temperature (RT), and then inverted to mix. Samples were incubated at RT for 15 min in the dark to lyse. After lysis, samples are centrifuged at 500×g for 5 minutes at RT to enable supernatant decanting. Remaining cells were washed with 1 mL of PBS-0.5% BSA and centrifuged at 500×g for 5 minutes at 4° C. Supernatant was decanted and cells were stained with leukocyte markers (human and mouse CD45 antibodies; BD347464, BD557659) to confirm human cell engraftment. Mice having less than one percent, or greater than ten percent, human CD45 positive cells were excluded from the subsequent study. Remaining mice were then randomized into treatment groups based on percentage of human cell engraftment. Each treatment group included 10-11 mice.\n(§6) Compound I-73 was dissolved in a 5% Cremophor RH40, 20% hydroxylpropyl-β-cyclodextrin solution. Hydroxyurea was solubilized in PBS. Formulations were prepared fresh daily. Commencing on day 84 post human cell engraftment, mice were treated by oral gavage with either I-73, hydroxyurea or their respective vehicles, for a period of three weeks using either once daily (QD) or twice daily (BID) dosing regimens. Mice were monitored daily for body weight and condition. […]"}, "[2]": {"tested_on": "HBG1 mRNA and HbF protein in bone marrow cells", "test": "Induction of fetal hemoglobin by hydroxyurea and I-73 in human CD34+ cell reconstituted immunodeficient mice, with analysis of synergistic effect", "type": "in vivo, NBSGW mice engrafted with human CD34+ cells", "method": "The model employed for assessment of induction of fetal hemoglobin by I-73 and hydroxyurea involved the use of human stem cell-reconstituted immunodeficient mice. Specifically, three hundred thousand human CD34-positive cells from G-CSF-mobilized human peripheral blood […] (PBMCs) were injected into the tail veins of NOD.Cg-KitW-41J Tyr+Prkdcscid Il2rgtm1Wjl/ThomJ (NBSGW) mice (JAX Strain No. 026622) on day 0. Twelve weeks later, mice were checked for human cell engraftment by sampling PBMCs from blood taken from the tail vein and staining for expression of murine or human CD45 by flow cytometry. After removing from the study those mice having greater than 10% human cells or less than 1% human cells in their peripheral blood, the remaining mice were randomized into treatment groups based on the human cell percentage. Thirteen weeks post engraftment, treatment was initiated with either hydroxyurea, I-73, or a combination of both compounds. Hydroxyurea was formulated in PBS (pH 7.4) and I-73 was formulated in 5% Cremophor RH 40/20% hydroxypropyl-β-cyclodextrin (Crem-CD) daily. Mice received either PBS or hydroxyurea each morning and I-73 or Crem-CD each afternoon by oral gavage. After twenty days of daily treatment, the mice were euthanized and their bone marrow (femurs, tibia and critae) were individually collected for subsequent analysis.\nBone marrow cell pellets (total 500K cells) were lysed in 20 μL of RLT (QIAGEN, 79216) with 1×β-mercaptoethanol (Gibco, 21985-023) and H2O followed by hybridizations. Hybridizations were done in a total volume of 15 μL [3 μL of RNA lysate added to master mix of 12 μL probe A/B (purchased from IDT), capture probe/reporter probes (NanoString™, XT TagSet-24, 121000602), proteinase K (Fisher Scientific, E00491) and H2O suspended in hybridization buffer]. Samples were hybridized at 65° C. for 22 hr. Following hybridization, the tripartide complexes were purified, immobilized by nCounter Prep Station and imaged by Digital Analyzer (nCounter MAX/FLEX Analysis System), to generate digital counts of barcodes corresponding to each target in the multiplexed reaction. Labeled barcodes obtained from unamplified extracts were counted at 555 images or field of view (FOV). The barcode counts for each sample were recorded in Reporter Code Count (RCC) files that are imported into nSolver analysis software (provided with CodeSet by NS) for quality control evaluation.\nTo assess levels of fetal hemoglobin by AlphaLISA, cells (200 k bone marrow cells/well) were lysed by resuspending pellets in 200 μL of lysis buffer plus protease inhibitor cocktail (100×), mixed well and incubating at room temperature for 30 minutes on the plate shaker @300 RPMs. Samples were then diluted 1:10 in a new 96-well round bottom plate by taking 10 uL of lysate and adding 90 μL of AlphaLISA immunoassay buffer. To create the “reaction plate”, 20 μL of Acceptor Beads (50 ug/mL final concentration) was added to each well using a multi-channel pipet. 10 uL of diluted cell lysate was added to the wells and mixed well. 20 μL of AlphaLISA immunoassay buffer was added to each well. Biotinylated antibody (final concentration) was then added to each well. The reaction plate on then placed on a plate shaker at 300 rpm for one hour to incubate at room temperature. After the first incubation was complete, 50 μL of Donor Beads ([…] final concentration) was added to each well and mixed well, keeping the plate in the dark. The covered plate was placed on a shaker at 350 rpm for 30 minutes to incubate at room temperature. After incubation, all 100 uL in each to an AlphaPlate in the dark. Plates were read on a VictorNIVO using the “Alpha 96 Well” setting. Alpha reading was programmed as the default setting with emission at 700 ms and 575/110n. […]"}, "[3]": {"tested_on": "fetal hemoglobin protein (HbF) in human erythroid progenitor cells", "test": "Humanized mouse model: HbF protein in bone marrow by AlphaLISA", "type": "in vivo, NBSGW mice reconstituted with human CD34+ cells", "settings": "humanized mouse model, human erythroid progenitor cells, dose not given at this place", "excerpt": "as §1, §2, §3, §4, §5, §6"}},
  "data": [
    {"smiles": "NC(=O)NO", "note": "[hydroxyurea]", "values": [
      {"measurement": "induction of fetal hemoglobin mRNA (HBG1)", "setting": "[1]", "value": "demonstrated to induce"},
      {"measurement": "induction of fetal hemoglobin mRNA (HBG1)", "setting": "[1]; listed as Hydroxyurea", "value": "significantly induces"},
      {"measurement": "average increase of HbF % over vehicle", "setting": "[2]; HU 75 mg/kg alone, WLS ANOVA estimate", "value": 0.59},
      {"measurement": "percentage of bone marrow cells expressing the erythroid cell marker glycophorin A", "setting": "[2]; alone or in combination with I-73", "value": "dose-dependent increase"},
      {"measurement": "percentage of HbF protein by HPLC in GlyA-positive bone marrow cells", "setting": "[2]; compared with vehicle treatment group, FIG. 7", "value": "significant increase"},
      {"measurement": "percentage of bone marrow cells expressing human CD45", "setting": "[2]; in vivo", "value": "did not alter"},
      {"measurement": "HbF level on a per erythroid progenitor (GlyA-positive) cell basis by AlphaLISA", "setting": "[2]; treatment alone", "value": "less HbF induction"},
      {"measurement": "induction of fetal hemoglobin protein (HbF)", "setting": "[3]", "value": "demonstrated to induce"},
      {"measurement": "induction of fetal hemoglobin protein (HbF)", "setting": "[3]; listed as Hydroxyurea", "value": "significantly induces"}
    ]}
  ]
}
